Source: patent EP0322251A2, “Benzothiopyran derivatives” (BEECHAM GROUP PLC, priority 1987, dated 1989)

Test system: Spontaneously hypertensive rats
Test: Blood pressure lowering activity, tail cuff method
Type: in vivo
Protocol: Blood Pressure Lowering Activity
Systolic blood pressures were recorded by a modification of the tail cuff method described by I.M. Claxton, M.G. Palfreyman, R.H. Poyser, R.L. Whiting, European Journal of Pharmacology, 37, 179 (1976). A W+W BP recorder, model 8005 was used to display pulses. Prior to all measurements rats were placed in a heated environment (33.5 ± 0.5°C) before transfer to a restraining cage. Each determination of blood pressure was the mean of at least 6 readings. Spontaneously hypertensive rats (ages 12-18 weeks) with systolic blood pressures >180 mmHg were considered hypertensive.

Cc1ccc2c(c1)C(N1CCCCC1=O)[C@H](O)C(C)(C)S2 (stereo partly drawn) [Example 1, Trans 3,4-Dihydro-4-(2-oxopiperidin-1-yl)-2,2,6-trimethyl-2H-1-benzothiapyran-3-ol]
% Change in Systolic Blood Pressure (dose 1 mg/kg, 1 hour post dose): -22 ± 5 (n=6) %
% Change in Systolic Blood Pressure (dose 1 mg/kg, 2 hours post dose): -17 ± 6 (n=6) %
% Change in Systolic Blood Pressure (dose 1 mg/kg, 4 hours post dose): -12 ± 11 (n=6) %

Cc1ccc2c(c1)[C@@H](N1CCCCC1=O)[C@H](O)C(C)(C)S2(=O)=O (relative stereo) [Example 3, Trans 3.4-dihydro-4-(2-oxopiperidin-1-yl)-2,2,6-trimethyl-2H-1-benzothiapyran-3-ol-1,1-dioxide]
% Change in Systolic Blood Pressure (dose 30 mg/kg, 1 hour post dose): -25 (n=2) %
% Change in Systolic Blood Pressure (dose 30 mg/kg, 2 hours post dose): -31 ± 7 (n=3) %
% Change in Systolic Blood Pressure (dose 30 mg/kg, 4 hours post dose): -16 ± 2 (n=3) %
% Change in Systolic Blood Pressure (dose 30 mg/kg, 6 hours post dose): -14 ± 3 (n=3) %

Cc1ccc2c(c1)C(N1CCCC1=O)=CC(C)(C)S2(=O)=O [Example 2, 4-(2-Oxopyrrolidin-1-yl)-2,2,6-trimethyl-2H-1-benzothiapyran-1,1-dioxide]
% Change in Systolic Blood Pressure (dose 10 mg/kg, 1 hour post dose): -50 ± 2 (n=5) %
% Change in Systolic Blood Pressure (dose 10 mg/kg, 2 hours post dose): -34 ± 4 (n=5) %
% Change in Systolic Blood Pressure (dose 10 mg/kg, 4 hours post dose): -22 ± 3 (n=4) %
% Change in Systolic Blood Pressure (dose 10 mg/kg, 6 hours post dose): -15 ± 2 (n=4) %
